{"source": "patent US10501734B2", "about": "“Compositions and methods of use thereof for making polypeptides with many instances of nonstandard amino acids” (Yale University, priority 2014, dated 2019)", "molecules": {"B1": {"name": "ELPs containing 30 pAzF nsAAs: ELP(30TAG)-GFP with 30 pAzF conjugated by click reaction to palmitic acid-alkyne (conjugate)", "chain": "SKGPGVPGGGVPGAGVPG[Phe(4-N3)](palmitic acid‑alkyne)GVPGGGVPGAGVPG[Phe(4-N3)](palmitic acid‑alkyne)GVPGGGVPGAGVPG[Phe(4-N3)](palmitic acid‑alkyne)GVPGGGVPGAGVPG[Phe(4-N3)](palmitic acid‑alkyne)GVPGGGVPGAGVPG[Phe(4-N3)](palmitic acid‑alkyne)GVPGGGVPGAGVPG[Phe(4-N3)](palmitic acid‑alkyne)GVPGGGVPGAGVPG[Phe(4-N3)](palmitic acid‑alkyne)GVPGGGVPGAGVPG[Phe(4-N3)](palmitic acid‑alkyne)GVPGGGVPGAGVPG[Phe(4-N3)](palmitic acid‑alkyne)GVPGGGVPGAGVPG[Phe(4-N3)](palmitic acid‑alkyne)GVPGGGVPGAGVPG[Phe(4-N3)](palmitic acid‑alkyne)GVPGGGVPGAGVPG[Phe(4-N3)](palmitic acid‑alkyne)GVPGGGVPGAGVPG[Phe(4-N3)](palmitic acid‑alkyne)GVPGGGVPGAGVPG[Phe(4-N3)](palmitic acid‑alkyne)GVPGGGVPGAGVPG[Phe(4-N3)](palmitic acid‑alkyne)GVPGGGVPGAGVPG[Phe(4-N3)](palmitic acid‑alkyne)GVPGGGVPGAGVPG[Phe(4-N3)](palmitic acid‑alkyne)GVPGGGVPGAGVPG[Phe(4-N3)](palmitic acid‑alkyne)GVPGGGVPGAGVPG[Phe(4-N3)](palmitic acid‑alkyne)GVPGGGVPGAGVPG[Phe(4-N3)](palmitic acid‑alkyne)GVPGGGVPGAGVPG[Phe(4-N3)](palmitic acid‑alkyne)GVPGGGVPGAGVPG[Phe(4-N3)](palmitic acid‑alkyne)GVPGGGVPGAGVPG[Phe(4-N3)](palmitic acid‑alkyne)GVPGGGVPGAGVPG[Phe(4-N3)](palmitic acid‑alkyne)GVPGGGVPGAGVPG[Phe(4-N3)](palmitic acid‑alkyne)GVPGGGVPGAGVPG[Phe(4-N3)](palmitic acid‑alkyne)GVPGGGVPGAGVPG[Phe(4-N3)](palmitic acid‑alkyne)GVPGGGVPGAGVPG[Phe(4-N3)](palmitic acid‑alkyne)GVPGGGVPGAGVPG[Phe(4-N3)](palmitic acid‑alkyne)GVPGGGVPGAGVPG[Phe(4-N3)](palmitic acid‑alkyne)GPGGGG-{GFP}", "modifications": "also: conjugated by click reaction", "notes": "ELP(30TAG)-GFP with 30 pAzF conjugated by click reaction to palmitic acid-alkyne"}}, "key": {"[1]": {"test_system": "ELP(10TAG)-GFP", "assay": "Intact cell GFP fluorescence, ELP(10TAG)-GFP production", "parameters": "species or system E. coli", "details": "plasmid-based pAcF OTS in the GRO", "experimental": "Liquid cell cultures of strains harboring chromosomally integrated OTSs and GFP reporter plasmids were inoculated from frozen stocks and grown to confluence overnight. Cultures were then inoculated at 1:20 dilution in LBmin media supplemented with 30 μg/ml kanamycin. Strains were inoculated by addition of 1:20 confluent cell culture (grown overnight) and allowed to grow at 34° C. to an OD600 of 0.5-0.8 in a shaking plate incubator at 650 r.p.m (˜3 h). AARS expression was then induced by the addition of 0.2% arabinose, GFP expression was induced by the addition of 60 ng/ul anhydrotetracycline, and the appropriate nsAA was added to a concentration of 1 mM. Cells were incubated at 34° C. for an additional 16 h. Liquid cell cultures of strains harboring plasmid-based OTSs and GFP or ELP-GFP reporter plasmids were inoculated from frozen stocks and grown to confluence overnight. Cultures were then inoculated at 1:20 dilution in 2×YT media supplemented with 30 μg/ml kanamycin and 20 μg/ml chloramphenicol. […]\nFor 384 well plate-based assays, fluorescence and OD600 were directly measured following expression. […] GFP fluorescence was measured on a Biotek spectrophotometric plate reader using excitation and emission wavelengths of 395 and 509 nm, respectively). Fluorescence signals were normalized by dividing the fluorescence counts by the OD600 reading. […]"}, "[2]": {"test_system": "ELP(30TAG)-GFP", "assay": "ELP expression and purification, yield of purified ELP(30TAG)-GFP", "type": "cell-based, E. coli", "details": "for yield of purified ELP(30TAG)-GFP compared to expression of WT protein: small batch cultures", "experimental": "Before batch expression, starter cultures (2 mL) of 2×YT media supplemented with 30 μg/mL kanamayacin and 20 μg/mL chloramphenicol were inoculated with transformed cells from a fresh agar plate or from stocks stored at −80° C., and incubated overnight at 34° C. while shaking at 250 rpm. Expression cultures (250 ml flasks containing 50 ml of 2×YT media, antibiotics, 0.2% arabinose and 1 mM of the nsAA) were inoculated with 0.5 ml of the starter culture and incubated at 34° C. for 4 h and then reporter protein expression was induced with 60 μg/mL anhydrotetracyclin.\nCells were harvested 24 h after inoculation by centrifugation at 4,000 g for 15 min at 4° C. The cell pellet was resuspended by vortex in ˜1.5 mL PBS buffer and stored at −80° C. or immediately purified. For purification, resuspended pellets were lysed by ultrasonic disruption (9 cycles of 10 s sonication separated by 40 s intervals). Poly(ethyleneimine) (0.2 mL of 10% solution) was added to each lysed suspension before centrifugation at 15,000 g for 3 min to separate cell debris from the soluble cell lysate.\nAll ELP constructs were purified by a modified Inverse Transition Cycling (ITC) protocol consisting of multiple “hot” and “cold” spins using sodium citrate to trigger the phase transition. Before purification, the soluble cell lysate was incubated for 1-2 min at ˜65° C. to denature native E. coli proteins. For “hot” spins, the ELP phase transition was triggered by adding sodium citrate to the cell lysate or the product of a previous cycle of ITC at a final concentration of ˜0.5 M. The solutions were then centrifuged at 14,000 g for 3 min and the pellets were resuspended in PBS, followed by a 3-5 min “cold” spin performed without addition of sodium citrate to remove denatured contaminant. Additional rounds of ITC were carried out as needed until sufficient purification was achieved.\nProtein concentration was calculated by measuring the OD280 of purified protein stocks according to the following extinction coefficients for ELP(30TAG)-GFP."}, "[3]": {"test_system": "GFP(3TAG)", "type": "cell-based, E. coli", "details": "plasmid-based pAcF OTS in the GRO", "experimental": "(§1) Liquid cell cultures of strains harboring chromosomally integrated OTSs and GFP reporter plasmids were inoculated from frozen stocks and grown to confluence overnight. Cultures were then inoculated at 1:20 dilution in LBmin media supplemented with 30 μg/ml kanamycin. Strains were inoculated by addition of 1:20 confluent cell culture (grown overnight) and allowed to grow at 34° C. to an OD600 of 0.5-0.8 in a shaking plate incubator at 650 r.p.m (˜3 h). AARS expression was then induced by the addition of 0.2% arabinose, GFP expression was induced by the addition of 60 ng/ul anhydrotetracycline, and the appropriate nsAA was added to a concentration of 1 mM. Cells were incubated at 34° C. for an additional 16 h. Liquid cell cultures of strains harboring plasmid-based OTSs and GFP or ELP-GFP reporter plasmids were inoculated from frozen stocks and grown to confluence overnight. Cultures were then inoculated at 1:20 dilution in 2×YT media supplemented with 30 μg/ml kanamycin and 20 μg/ml chloramphenicol. […] Cells were allowed to grow at 34° C. to an OD600 of 0.5-0.8 in a shaking plate incubator at 650 r.p.m (˜3 h), reporter protein expression was then induced by the addition of 60 ng/ul anhydrotetracycline, and cells were incubated at 34° C. for an additional 16 h.\n(§2) For 384 well plate-based assays, fluorescence and OD600 were directly measured following expression. For 96 well plate-based assays, cells were centrifuged at 4,000 g for 4 min. Supernatant medium was removed and cells were resuspended in PBS. This process was repeated twice with PBS. GFP fluorescence was measured on a Biotek spectrophotometric plate reader using excitation and emission wavelengths of 395 and 509 nm, respectively). Fluorescence signals were normalized by dividing the fluorescence counts by the OD600 reading. The nsAAs used in this study were purchased from Sigma-Aldrich (St. Louis, Mo.), Chemlmpex (Wood Dale, Ill.), and Bachem (Torrance, Calif.). Solutions of nsAAs (50 mM) were made in water or 50 mM NaOH; these stock solutions were diluted 50- or 100-fold (to 1 mM final concentration) into medium used for bacterial growth."}, "[4]": {"test_system": "ELP(30TAG)-GFP", "assay": "Intact cell GFP fluorescence, ELP(30TAG)-GFP production", "type": "cell-based, E. coli", "details": "plasmid-based pAcF OTS in the GRO", "experimental": "as §1, §2"}, "[5]": {"target": "BSA (Bos taurus, UniProt P02769)", "sequence (P02769 25-607)": "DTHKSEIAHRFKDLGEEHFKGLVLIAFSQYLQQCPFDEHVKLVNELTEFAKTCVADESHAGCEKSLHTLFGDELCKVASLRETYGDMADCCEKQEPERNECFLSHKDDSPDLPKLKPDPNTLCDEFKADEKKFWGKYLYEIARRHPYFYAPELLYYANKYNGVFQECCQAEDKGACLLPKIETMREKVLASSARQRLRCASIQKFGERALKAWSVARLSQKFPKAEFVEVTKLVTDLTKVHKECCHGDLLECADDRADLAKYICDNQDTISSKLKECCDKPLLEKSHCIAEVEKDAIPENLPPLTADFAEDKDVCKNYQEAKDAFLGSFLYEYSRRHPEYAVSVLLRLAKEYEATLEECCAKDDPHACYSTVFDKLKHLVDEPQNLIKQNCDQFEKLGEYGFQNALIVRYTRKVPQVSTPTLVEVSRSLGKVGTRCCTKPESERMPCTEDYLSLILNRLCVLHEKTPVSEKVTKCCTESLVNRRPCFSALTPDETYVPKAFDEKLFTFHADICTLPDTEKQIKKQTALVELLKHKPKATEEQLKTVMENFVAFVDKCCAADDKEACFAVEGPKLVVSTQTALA", "assay": "Binding to BSA coated agarose beads, GFP fluorescence", "details": "palmitic acid conjugated; 30 vs. 1 pAzF instances", "text": "When supplied with insufficient amounts of alkyne (a ratio of 0.125, 0.25 and 0.5 alkyne:azide), a partial shift was observed as well as a “smear” of the protein band that signifies stochastic reaction of less than 30 sites. In contrast, when sufficient alkyne was supplied, a sharp band is apparent with a consistent size shift compared with the unreacted control. Next, ELP-GFP containing either 30 azide groups or a single azide group and 30 tyrosine groups were contacted with BSA coated agarose beads. The beads were subsequently washed and the amount of protein bound to the beads was measured via GFP fluorescence. The results are illustrated in FIG. 11."}}, "note": "Non-standard residues stand in square brackets, D forms with d. Phe(4-N3) = [N-]=[N+]=Nc1ccc(C[C@H](N)C(=O)O)cc1", "data": [{"molecule": "[N-]=[N+]=Nc1ccc(C[C@H](N)C(=O)O)cc1", "note": "[pAzF, p-azido-L-phenylalanine, reference compound]", "values": [{"measurement": "ELP(10TAG)-GFP fluorescence compared to WT-protein", "setting": "[1]", "value": 32, "unit": "%"}, {"measurement": "Yield of purified ELP(30TAG)-GFP", "setting": "[2]; nsAA pAzF, GRO", "value": "too low to allow for purification"}, {"measurement": "GFP(3TAG) fluorescence compared to WT-protein", "setting": "[3]", "value": 75, "unit": "%"}, {"measurement": "ELP(30TAG)-GFP fluorescence compared to WT-protein", "setting": "[4]", "value": 6, "unit": "%"}]}, {"molecule": "CC(=O)c1ccc(C[C@H](N)C(=O)O)cc1", "note": "[pAcF, p-acetyl-L-phenylalanine, reference compound]", "values": [{"measurement": "ELP(10TAG)-GFP fluorescence compared to WT-protein", "setting": "[1]", "value": 87, "unit": "%"}, {"measurement": "yield of purified ELP(30TAG)-GFP compared to expression of WT protein", "setting": "[2]; GRO", "value": 18, "unit": "%"}, {"measurement": "yield of purified ELP(30TAG)-GFP compared to expression of WT protein", "setting": "[2]; parent (non-recoded) strain", "value": 8, "unit": "%"}, {"measurement": "GFP(3TAG) fluorescence compared to WT-protein", "setting": "[3]", "value": 110, "unit": "%"}, {"measurement": "ELP(30TAG)-GFP fluorescence compared to WT-protein", "setting": "[4]", "value": 25, "unit": "%"}]}, {"molecule": "B1", "values": [{"measurement": "BSA binding", "setting": "[5]", "value": "improved BSA binding"}]}]}
